ChEMBL document CHEMBL3046060, “Synthesis, molecular docking study, and anticancer activity of triaryl-1,2,4-oxadiazole” (Med Chem Res, 2013)

Assays:
[1] = system: K562; test: Cytotoxicity against Homo sapiens (human) K562 cells assessed as inhibition of cell proliferation after 24 hr by MTT assay; type: functional, cell-based; conditions: K562, 24 h
[2] = system: MCF7; test: cells; conditions: Homo sapiens, MCF7, 24 h
Description: Cytotoxicity against Homo sapiens (human) MCF7 cells assessed as inhibition of cell proliferation after 24 hr by MTT assay

[3] = system: MCF7; test: Cytotoxicity against Homo sapiens (human) MCF7 cells at 50 uM after 24 hr by MTT assay; type: functional
[4] = system: K562; test: Cytotoxicity against Homo sapiens (human) K562 cells at 50 uM after 24 hr by MTT assay; type: functional

Row | Structure (SMILES) | IC50 [1] | IC50 [2] | Activity [3] | Activity [4]
1 | CC(=O)O[C@H]1C(=O)[C@@]2(C)[C@H]([C@H](OC(=O)c3ccccc3)[C@]3(O)C[C@H](OC(=O)[C@H](O)[C@@H](NC(=O)c4ccccc4)c4ccccc4)C(C)=C1C3(C)C)[C@]1(OC(C)=O)CO[C@@H]1C[C@@H]2O [PACLITAXEL] | > 100 µM |  |  | 
2 | Clc1ccc(C2=NOC(c3ccccc3)N2c2ccccc2)cc1 (centres undefined) | 97 µM | 23.7 µM | >50% | >50%
3 | Clc1ccc(C2=NOC(c3ccc(Cl)cc3)N2c2ccc(Cl)cc2)cc1 (centres undefined) | 51.2 µM | 22.6 µM | >50% | >50%
4 | Fc1ccc(C2ON=C(c3ccc(Cl)cc3)N2c2ccccc2)cc1 (centres undefined) | 21.7 µM | 6.5 µM | >50% | >50%
5 | Clc1ccc(C2=NOC(c3ccc(Cl)cc3)N2c2ccccc2)cc1 (centres undefined) | 22.2 µM | 10.1 µM | >50% | >50%
6 | COc1cccc2c1C(=O)c1c(O)c3c(c(O)c1C2=O)C[C@@](O)(C(=O)CO)C[C@@H]3O[C@H]1C[C@H](N)[C@H](O)[C@H](C)O1 [DOXORUBICIN] | 4.49 µM | > 100 µM |  | 
